# Laboratory results taken from ChEMBL document CHEMBL5715954, “Silencing c-Myc translation as a therapeutic strategy through targeting PI3Kδ and CK1ε in hematological malignancies” (Blood, 2017).
# Tests used:
# Set-up in all cases: scale not given: the % may be the effect or the level left
# [1] = molecular target: Mitogen-activated protein kinase 8 (Homo sapiens) (UniProt P45983); assay: Inhibition of human JNK1-alpha1 assessed as enzyme activity at 1 uM using ATF2 as substrate preincubated for 20 mins followed by [gamma-33P]-ATP addition and measured after 120 mins by radiometric Hot-SpotSM Kinase assay relative to control
# [2] = molecular target: Tau-tubulin kinase 1 (Homo sapiens) (UniProt Q5TCY1); assay: Inhibition of human TTBK1 assessed as enzyme activity at 1 uM using myelin basic protein as substrate preincubated for 20 mins followed by [gamma-33P]-ATP addition and measured after 120 mins by radiometric Hot-SpotSM Kinase assay relative to control
# Sequence of Tau-tubulin kinase 1 (Homo sapiens) (Q5TCY1 whole entry): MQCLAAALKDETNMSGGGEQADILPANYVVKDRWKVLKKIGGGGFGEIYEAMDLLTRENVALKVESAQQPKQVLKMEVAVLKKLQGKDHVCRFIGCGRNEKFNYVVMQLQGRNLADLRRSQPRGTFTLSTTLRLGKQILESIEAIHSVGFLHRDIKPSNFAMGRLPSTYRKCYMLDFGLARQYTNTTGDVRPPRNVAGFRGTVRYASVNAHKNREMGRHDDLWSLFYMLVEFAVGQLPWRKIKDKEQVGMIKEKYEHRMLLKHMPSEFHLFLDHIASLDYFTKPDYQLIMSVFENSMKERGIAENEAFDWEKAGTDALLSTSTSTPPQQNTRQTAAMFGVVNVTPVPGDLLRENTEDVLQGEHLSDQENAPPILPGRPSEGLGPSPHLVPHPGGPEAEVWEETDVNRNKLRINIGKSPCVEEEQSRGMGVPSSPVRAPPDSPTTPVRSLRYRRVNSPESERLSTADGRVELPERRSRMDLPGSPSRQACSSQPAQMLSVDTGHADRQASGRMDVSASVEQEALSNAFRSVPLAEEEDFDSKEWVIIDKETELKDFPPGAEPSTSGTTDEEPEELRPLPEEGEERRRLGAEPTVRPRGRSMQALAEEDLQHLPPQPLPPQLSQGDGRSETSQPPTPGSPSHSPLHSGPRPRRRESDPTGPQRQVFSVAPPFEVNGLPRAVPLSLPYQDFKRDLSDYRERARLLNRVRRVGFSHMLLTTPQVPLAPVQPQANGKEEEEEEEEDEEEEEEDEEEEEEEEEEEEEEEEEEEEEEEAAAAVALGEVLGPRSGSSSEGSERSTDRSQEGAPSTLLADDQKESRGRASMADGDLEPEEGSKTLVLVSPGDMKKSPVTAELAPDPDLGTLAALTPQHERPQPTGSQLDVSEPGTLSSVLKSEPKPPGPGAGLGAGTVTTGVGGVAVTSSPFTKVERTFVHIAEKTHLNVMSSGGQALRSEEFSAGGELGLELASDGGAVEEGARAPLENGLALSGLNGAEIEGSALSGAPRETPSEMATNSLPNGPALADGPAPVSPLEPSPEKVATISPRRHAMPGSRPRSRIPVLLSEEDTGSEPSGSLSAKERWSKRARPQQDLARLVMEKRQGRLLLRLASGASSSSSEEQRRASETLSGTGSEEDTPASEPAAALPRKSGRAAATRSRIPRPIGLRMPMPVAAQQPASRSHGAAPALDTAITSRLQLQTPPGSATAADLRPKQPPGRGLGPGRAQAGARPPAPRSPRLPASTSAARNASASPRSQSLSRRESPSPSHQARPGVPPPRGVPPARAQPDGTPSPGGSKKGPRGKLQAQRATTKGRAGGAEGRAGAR
# [3] = molecular target: MAP kinase-interacting serine/threonine-protein kinase 2 (Homo sapiens) (UniProt Q9HBH9); assay: Inhibition of human MNK2 assessed as enzyme activity at 1 uM using myelin basic protein as substrate preincubated for 20 mins followed by [gamma-33P]-ATP addition and measured after 120 mins by radiometric Hot-SpotSM Kinase assay relative to control
# [4] = molecular target: BDNF/NT-3 growth factors receptor (Homo sapiens) (UniProt Q16620); assay: Inhibition of human TRKB assessed as enzyme activity at 1 uM using poly[Glu:Tyr] (4:1) as substrate preincubated for 20 mins followed by [gamma-33P]-ATP addition and measured after 120 mins by radiometric Hot-SpotSM Kinase assay relative to control
# Sequence of BDNF/NT-3 growth factors receptor (Homo sapiens) (Q16620 32-822 limits assumed): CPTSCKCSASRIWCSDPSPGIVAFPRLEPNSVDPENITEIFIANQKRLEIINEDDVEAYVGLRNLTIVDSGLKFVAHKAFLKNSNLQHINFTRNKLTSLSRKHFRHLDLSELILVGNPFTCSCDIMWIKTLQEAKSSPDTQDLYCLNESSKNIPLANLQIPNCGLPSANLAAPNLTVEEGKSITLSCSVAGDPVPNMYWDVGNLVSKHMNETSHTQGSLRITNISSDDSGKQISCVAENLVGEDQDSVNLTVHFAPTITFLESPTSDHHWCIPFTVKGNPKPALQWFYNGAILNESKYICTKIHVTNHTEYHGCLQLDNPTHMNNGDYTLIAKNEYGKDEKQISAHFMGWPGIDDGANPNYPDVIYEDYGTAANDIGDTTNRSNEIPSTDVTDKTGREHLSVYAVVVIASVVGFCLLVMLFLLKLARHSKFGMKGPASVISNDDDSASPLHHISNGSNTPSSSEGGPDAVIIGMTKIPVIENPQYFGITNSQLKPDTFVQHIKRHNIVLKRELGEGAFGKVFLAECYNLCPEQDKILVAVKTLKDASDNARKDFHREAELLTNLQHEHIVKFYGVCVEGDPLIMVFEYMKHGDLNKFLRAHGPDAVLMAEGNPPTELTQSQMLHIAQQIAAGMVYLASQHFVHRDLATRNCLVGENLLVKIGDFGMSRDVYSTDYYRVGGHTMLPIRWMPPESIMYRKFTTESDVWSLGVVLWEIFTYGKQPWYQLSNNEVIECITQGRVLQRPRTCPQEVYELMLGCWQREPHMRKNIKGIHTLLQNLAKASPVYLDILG
# [5] = molecular target: Myosin light chain kinase 2, skeletal/cardiac muscle (Homo sapiens) (UniProt Q9H1R3); assay: Inhibition of human MLCK2 assessed as enzyme activity at 1 uM using KKLNRTLSFAEPG as substrate preincubated for 20 mins followed by [gamma-33P]-ATP addition and measured after 120 mins by radiometric Hot-SpotSM Kinase assay relative to control
# Sequence of Myosin light chain kinase 2, skeletal/cardiac muscle (Homo sapiens) (Q9H1R3 whole entry): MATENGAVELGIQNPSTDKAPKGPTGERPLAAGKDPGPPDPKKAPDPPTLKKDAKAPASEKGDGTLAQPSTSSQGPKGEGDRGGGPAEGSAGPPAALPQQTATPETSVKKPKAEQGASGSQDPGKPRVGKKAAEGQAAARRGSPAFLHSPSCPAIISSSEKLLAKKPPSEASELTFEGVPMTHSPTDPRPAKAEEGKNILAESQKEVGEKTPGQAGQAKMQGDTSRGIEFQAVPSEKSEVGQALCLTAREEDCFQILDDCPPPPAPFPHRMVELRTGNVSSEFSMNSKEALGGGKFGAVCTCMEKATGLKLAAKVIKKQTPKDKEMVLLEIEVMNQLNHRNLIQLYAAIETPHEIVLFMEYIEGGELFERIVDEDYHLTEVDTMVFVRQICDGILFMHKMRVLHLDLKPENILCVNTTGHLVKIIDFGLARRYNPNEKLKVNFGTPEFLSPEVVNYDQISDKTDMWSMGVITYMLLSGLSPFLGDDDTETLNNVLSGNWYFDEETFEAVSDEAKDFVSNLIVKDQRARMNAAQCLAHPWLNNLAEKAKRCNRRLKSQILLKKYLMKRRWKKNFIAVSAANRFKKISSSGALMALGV
# [6] = molecular target: Ribosomal protein S6 kinase alpha-5 (Homo sapiens) (UniProt O75582); assay: Inhibition of human MSK1 assessed as enzyme activity at 1 uM using GRPRTSSFAEG as substrate preincubated for 20 mins followed by [gamma-33P]-ATP addition and measured after 120 mins by radiometric Hot-SpotSM Kinase assay relative to control
# Sequence of Ribosomal protein S6 kinase alpha-5 (Homo sapiens) (O75582 whole entry, looked up): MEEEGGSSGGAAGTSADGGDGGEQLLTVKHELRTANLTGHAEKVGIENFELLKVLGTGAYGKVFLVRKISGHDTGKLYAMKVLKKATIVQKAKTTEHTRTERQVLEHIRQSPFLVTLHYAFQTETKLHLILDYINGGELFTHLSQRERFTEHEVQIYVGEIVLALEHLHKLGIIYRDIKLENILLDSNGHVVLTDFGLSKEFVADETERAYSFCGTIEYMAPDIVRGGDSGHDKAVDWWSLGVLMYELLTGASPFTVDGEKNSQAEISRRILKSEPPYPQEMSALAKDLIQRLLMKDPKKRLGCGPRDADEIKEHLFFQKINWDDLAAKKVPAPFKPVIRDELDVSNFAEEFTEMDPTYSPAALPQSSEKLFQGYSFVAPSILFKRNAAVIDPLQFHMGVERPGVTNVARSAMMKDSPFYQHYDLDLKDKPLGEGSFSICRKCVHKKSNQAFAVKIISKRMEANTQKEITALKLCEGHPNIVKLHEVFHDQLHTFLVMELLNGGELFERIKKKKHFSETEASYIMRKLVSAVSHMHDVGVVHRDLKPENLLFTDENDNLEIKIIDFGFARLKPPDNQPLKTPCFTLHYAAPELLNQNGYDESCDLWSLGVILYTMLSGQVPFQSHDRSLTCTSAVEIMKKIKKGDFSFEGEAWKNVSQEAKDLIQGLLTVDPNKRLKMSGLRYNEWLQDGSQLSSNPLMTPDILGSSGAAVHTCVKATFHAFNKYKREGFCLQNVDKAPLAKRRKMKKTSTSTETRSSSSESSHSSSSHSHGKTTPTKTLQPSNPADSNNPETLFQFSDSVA
# [7] = molecular target: Casein kinase II subunit alpha' (Homo sapiens) (UniProt P19784); assay: Inhibition of human CK2a2 assessed as enzyme activity at 1 uM using RRRDDDSDDD as substrate preincubated for 20 mins followed by [gamma-33P]-ATP addition and measured after 120 mins by radiometric Hot-SpotSM Kinase assay relative to control
# [8] = molecular target: T1, Kinase suppressor of Ras 2 (Homo sapiens) (UniProt Q6VAB6); assay: Inhibition of human KSR2 assessed as enzyme activity at 1 uM using KRREILSRRPSYR as substrate preincubated for 20 mins followed by [gamma-33P]-ATP addition and measured after 120 mins by radiometric Hot-SpotSM Kinase assay relative to control
# T1 sequence (whole entry): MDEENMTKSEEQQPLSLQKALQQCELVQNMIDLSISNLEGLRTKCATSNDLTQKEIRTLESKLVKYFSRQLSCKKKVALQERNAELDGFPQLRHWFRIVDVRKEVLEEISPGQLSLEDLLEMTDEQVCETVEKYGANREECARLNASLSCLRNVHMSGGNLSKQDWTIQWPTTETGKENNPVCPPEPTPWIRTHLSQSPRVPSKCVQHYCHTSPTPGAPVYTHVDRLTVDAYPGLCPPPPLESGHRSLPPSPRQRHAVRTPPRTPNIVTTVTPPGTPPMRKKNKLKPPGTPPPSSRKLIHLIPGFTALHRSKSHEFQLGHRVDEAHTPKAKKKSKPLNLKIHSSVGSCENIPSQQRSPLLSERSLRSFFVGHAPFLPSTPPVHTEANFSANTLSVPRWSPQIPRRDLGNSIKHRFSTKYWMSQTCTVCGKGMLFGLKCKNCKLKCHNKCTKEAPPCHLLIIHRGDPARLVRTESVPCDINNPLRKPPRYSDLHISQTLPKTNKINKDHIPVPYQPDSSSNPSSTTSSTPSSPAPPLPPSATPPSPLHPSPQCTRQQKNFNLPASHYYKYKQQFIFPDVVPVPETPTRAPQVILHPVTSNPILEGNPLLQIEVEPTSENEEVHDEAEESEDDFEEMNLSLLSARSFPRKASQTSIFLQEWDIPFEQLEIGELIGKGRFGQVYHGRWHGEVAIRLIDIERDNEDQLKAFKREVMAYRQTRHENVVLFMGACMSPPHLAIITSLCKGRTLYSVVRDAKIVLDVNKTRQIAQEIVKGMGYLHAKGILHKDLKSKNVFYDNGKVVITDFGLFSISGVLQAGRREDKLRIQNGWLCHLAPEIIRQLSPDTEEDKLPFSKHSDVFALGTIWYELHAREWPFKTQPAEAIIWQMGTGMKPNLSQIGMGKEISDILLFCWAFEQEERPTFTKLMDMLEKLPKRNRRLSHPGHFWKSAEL
# [9] = molecular target: Mitogen-activated protein kinase 11 (Homo sapiens) (UniProt Q15759); assay: Inhibition of human P38b assessed as enzyme activity at 1 uM using myelin basic protein as substrate preincubated for 20 mins followed by [gamma-33P]-ATP addition and measured after 120 mins by radiometric Hot-SpotSM Kinase assay relative to control
# Sequence of Mitogen-activated protein kinase 11 (Homo sapiens) (Q15759 whole entry): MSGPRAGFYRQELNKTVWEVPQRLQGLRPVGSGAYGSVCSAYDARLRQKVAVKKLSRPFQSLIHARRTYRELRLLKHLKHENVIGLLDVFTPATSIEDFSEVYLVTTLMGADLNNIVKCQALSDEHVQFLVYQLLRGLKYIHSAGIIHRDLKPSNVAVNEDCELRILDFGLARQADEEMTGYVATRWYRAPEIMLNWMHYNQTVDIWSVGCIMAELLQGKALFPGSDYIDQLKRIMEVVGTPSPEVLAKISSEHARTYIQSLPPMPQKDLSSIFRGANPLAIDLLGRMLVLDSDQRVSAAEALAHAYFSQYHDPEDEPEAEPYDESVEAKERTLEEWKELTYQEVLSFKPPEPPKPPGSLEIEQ
# [10] = molecular target: T2, Serine/threonine-protein kinase ICK (Homo sapiens) (UniProt Q9UPZ9); assay: Inhibition of human LCK2 assessed as enzyme activity at 1 uM using myelin basic protein as substrate preincubated for 20 mins followed by [gamma-33P]-ATP addition and measured after 120 mins by radiometric Hot-SpotSM Kinase assay relative to control
# T2 sequence (whole entry): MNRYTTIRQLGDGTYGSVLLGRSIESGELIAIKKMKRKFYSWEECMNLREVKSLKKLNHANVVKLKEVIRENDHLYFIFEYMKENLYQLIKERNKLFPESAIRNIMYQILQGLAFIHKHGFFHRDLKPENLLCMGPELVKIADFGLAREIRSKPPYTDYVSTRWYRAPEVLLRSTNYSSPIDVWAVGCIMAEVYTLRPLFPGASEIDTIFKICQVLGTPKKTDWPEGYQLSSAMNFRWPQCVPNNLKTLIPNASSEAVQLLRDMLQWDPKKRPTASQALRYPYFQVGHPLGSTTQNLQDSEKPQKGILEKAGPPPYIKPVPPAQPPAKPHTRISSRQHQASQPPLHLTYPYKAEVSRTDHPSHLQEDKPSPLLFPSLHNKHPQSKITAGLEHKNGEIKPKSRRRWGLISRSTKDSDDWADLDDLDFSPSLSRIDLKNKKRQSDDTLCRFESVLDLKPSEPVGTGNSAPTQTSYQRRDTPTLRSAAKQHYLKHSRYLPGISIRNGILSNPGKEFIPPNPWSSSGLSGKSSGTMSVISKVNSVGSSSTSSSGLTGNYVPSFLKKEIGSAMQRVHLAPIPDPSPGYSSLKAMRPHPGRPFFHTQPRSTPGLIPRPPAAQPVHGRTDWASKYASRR
# [11] = molecular target: Homeodomain-interacting protein kinase 3 (Homo sapiens) (UniProt Q9H422); assay: Inhibition of human HIPK3 assessed as enzyme activity at 1 uM using myelin basic protein as substrate preincubated for 20 mins followed by [gamma-33P]-ATP addition and measured after 120 mins by radiometric Hot-SpotSM Kinase assay relative to control
# Sequence of Homeodomain-interacting protein kinase 3 (Homo sapiens) (Q9H422 whole entry, looked up): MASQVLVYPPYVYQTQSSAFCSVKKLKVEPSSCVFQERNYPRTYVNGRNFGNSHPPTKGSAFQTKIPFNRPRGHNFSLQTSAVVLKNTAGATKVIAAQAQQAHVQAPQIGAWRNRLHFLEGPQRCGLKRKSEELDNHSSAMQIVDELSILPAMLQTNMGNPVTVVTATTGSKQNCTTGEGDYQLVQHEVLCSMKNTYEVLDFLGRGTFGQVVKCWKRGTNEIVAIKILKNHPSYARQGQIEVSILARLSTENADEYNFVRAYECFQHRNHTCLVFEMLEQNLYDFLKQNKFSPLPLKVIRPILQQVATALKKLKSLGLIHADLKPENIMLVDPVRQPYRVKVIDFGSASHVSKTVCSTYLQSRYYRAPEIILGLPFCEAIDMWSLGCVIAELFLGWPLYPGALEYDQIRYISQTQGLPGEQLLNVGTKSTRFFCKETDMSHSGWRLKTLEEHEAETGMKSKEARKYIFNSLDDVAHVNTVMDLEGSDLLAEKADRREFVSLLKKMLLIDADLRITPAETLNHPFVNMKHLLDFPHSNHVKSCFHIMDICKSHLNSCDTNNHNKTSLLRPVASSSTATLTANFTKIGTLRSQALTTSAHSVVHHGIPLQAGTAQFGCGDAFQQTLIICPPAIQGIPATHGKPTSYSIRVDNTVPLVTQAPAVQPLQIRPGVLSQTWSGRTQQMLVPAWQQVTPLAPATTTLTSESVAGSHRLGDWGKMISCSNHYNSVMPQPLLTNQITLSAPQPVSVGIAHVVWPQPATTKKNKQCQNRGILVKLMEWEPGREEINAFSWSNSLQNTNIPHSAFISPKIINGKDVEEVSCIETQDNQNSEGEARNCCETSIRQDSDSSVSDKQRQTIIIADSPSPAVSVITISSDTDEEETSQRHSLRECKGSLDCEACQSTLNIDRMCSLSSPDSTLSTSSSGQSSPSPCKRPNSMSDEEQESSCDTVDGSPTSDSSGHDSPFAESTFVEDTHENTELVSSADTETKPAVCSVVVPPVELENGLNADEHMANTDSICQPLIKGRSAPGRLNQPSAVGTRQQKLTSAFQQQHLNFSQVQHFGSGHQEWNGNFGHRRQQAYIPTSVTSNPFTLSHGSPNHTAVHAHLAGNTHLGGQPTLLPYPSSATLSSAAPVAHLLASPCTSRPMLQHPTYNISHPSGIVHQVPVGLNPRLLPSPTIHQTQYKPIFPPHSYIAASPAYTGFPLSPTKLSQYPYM
Structure (SMILES),Activity [1] [%],Activity [2] [%],Activity [3] [%],Activity [4] [%],Activity [5] [%],Activity [6] [%],Activity [7] [%],Activity [8] [%],Activity [9] [%],Activity [10] [%],Activity [11] [%]
C[C@H](Nc1ncnc2nc[nH]c12)c1cc2cccc(Cl)c2c(=O)n1-c1ccccc1,101,97.8,99.9,95.8,100,96.3,99.5,91.4,92.6,91.6,105
CC[C@H](Nc1ncnc2[nH]cnc12)c1nc2cccc(F)c2c(=O)n1-c1ccccc1,97.3,95.8,105,94.1,98.7,94.6,91.8,95,94.8,100,108
CC(C)Oc1ccc(-c2nn([C@@H](C)c3oc4ccc(F)cc4c(=O)c3-c3cccc(F)c3)c3ncnc(N)c23)cc1F [UMBRALISIB],98.7,103,102,96,101,96.8,86.4,96.2,89.3,101,103
